Consider 27 molecules from US11590139B2, “Substituted aminopurine compounds, compositions thereof, and methods of treatment therewith” (Signal Pharmaceuticals, LLC, priority 2014, dated 2023).

pIC50: −log10 of the molar value. Some results are limits rather than exact numbers.

The test system of one assay is Lox-IMVI melanoma cell line. As to the kind of experiment: Lox-IMVI anti-proliferative assay (growth inhibition, Cell Titer-Glo). The settings on record: Homo sapiens; IC50 activity level in the cell-based Lox-IMVI anti-proliferative assay; read-out: Activity. In kind it is cell-based, human. The procedure, abridged:
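Growth inhibition is assessed over 72 h in RPMI + 10% FBS at 0.2% DMSO, with ATP-based luminescence used as the viability measure. IC50 is fitted from normalized dose-response data.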
(In general: Cellular ATP, detected with luciferase, serves as a proxy for viable cell number.)
For the molecule `CS(=O)(=O)N1CCC(Nc2ncc3nc(Nc4c(F)cc(Cl)cc4Cl)n([C@H]4CC[C@@H](C(N)=O)CC4)c3n2)CC1` [Example 296, (1s,4s)-4-(8-(2,4-dichloro-6-fluorophenylamino)-2-(1-(methylsulfonyl)piperidin-4-ylamino)-9H-purin-9-yl)cyclohexanecarboxamide], the pIC50 was 6.00 to 6.30.

As to `NC(=O)[C@H]1CC[C@@H](n2c(Nc3cc(Cl)c(F)cc3F)nc3cnc(NC4CCOCC4)nc32)CC1` [Example 64, (1s,4s)-4-(8-(5-chloro-2,4-difluorophenylamino)-2-(tetrahydro-2H-pyran-4-ylamino)-9H-purin-9-yl)cyclohexanecarboxamide], the pIC50 is less than 6.00.

Regarding `CC[C@H](C)Nc1ncc2nc(Nc3c(F)cccc3F)n([C@H]3CC[C@@H](C(N)=O)CC3)c2n1` [Example 335, (1R,4s)-4-(2-(sec-butylamino)-8-(2,6-difluorophenylamino)-9H-purin-9-yl)cyclohexanecarboxamide], the pIC50 is less than 6.00.

For `NC(=O)[C@H]1CC[C@@H](n2c(Nc3ccc(Cl)cc3F)nc3cnc(NC4CCCC4)nc32)CC1` [Example 95, (1s,4s)-4-(8-(4-chloro-2-fluorophenylamino)-2-(cyclopentylamino)-9H-purin-9-yl)cyclohexanecarboxamide], the pIC50 was less than 6.00.

On to `CCC(C)Nc1ncc2nc(Nc3c(F)ccc(Cl)c3F)n([C@H]3CC[C@@H](C(N)=O)CC3)c2n1` (stereo partly drawn) [Example 340, (1R,4s)-4-(2-(sec-butylamino)-8-(3-chloro-2,6-difluorophenylamino)-9H-purin-9-yl)cyclohexanecarboxamide], for which the pIC50 was less than 6.00.

As to `NC(=O)[C@H]1CC[C@@H](n2c(Nc3c(F)cc(Cl)cc3F)nc3cnc(NC4CCC4)nc32)CC1` [Example 129, (1s,4s)-4-(8-(4-chloro-2,6-difluorophenylamino)-2-(cyclobutylamino)-9H-purin-9-yl)cyclohexanecarboxamide], the pIC50 was less than 6.00.

Regarding `NC(=O)[C@H]1CC[C@@H](n2c(Nc3c(F)cccc3F)nc3cnc(N[C@@H]4CCOC[C@@H]4F)nc32)CC1` [Example 304, (1S,4s)-4-(8-(2,6-difluorophenylamino)-2-((3R,4R)-3-fluorotetrahydro-2H-pyran-4-ylamino)-9H-purin-9-yl)cyclohexanecarboxamide], the pIC50 is less than 6.00.

`NC(=O)[C@H]1CC[C@@H](n2c(Nc3c(F)cccc3F)nc3cnc(NC4CC5(COC5)C4)nc32)CC1` [Example 173, (1s,4s)-4-(2-(2-oxaspiro[3.3]heptan-6-ylamino)-8-(2,6-difluorophenylamino)-9H-purin-9-yl)cyclohexanecarboxamide]: the pIC50 was less than 6.00.

For `NC(=O)[C@H]1CC[C@@H](n2c(Nc3c(F)cc(Cl)cc3F)nc3cnc(NC4COCC4O)nc32)CC1` (stereo partly drawn) [Example 184, (1s,4s)-4-(8-(4-chloro-2,6-difluorophenylamino)-2-(4-hydroxytetrahydrofuran-3-ylamino)-9H-purin-9-yl)cyclohexanecarboxamide], the pIC50 was less than 6.00.

Turning to `C[C@@H](CO)Nc1ncc2nc(Nc3c(F)cccc3F)n([C@H]3CC[C@@H](C(N)=O)CC3)c2n1` [Example 167, (1R,4s)-4-(8-(2,6-difluorophenylamino)-2-((S)-1 hydroxypropan-2-ylamino)-9H-purin-9-yl)cyclohexanecarboxamide], the pIC50 is less than 6.00.

With `CC[C@H](C)Nc1ncc2nc(Nc3c(Cl)cccc3Cl)n([C@H]3CC[C@@H](C(N)=O)CC3)c2n1` [Example 336, (1R,4s)-4-(2-(sec-butylamino)-8-(2,6-dichlorophenylamino)-9H-purin-9-yl)cyclohexanecarboxamide], the pIC50 was less than 6.00.

For the molecule `NC(=O)[C@H]1CC[C@@H](n2c(Nc3ccc(Cl)cc3Cl)nc3cnc(N[C@@H]4CC[C@@H](O)C4)nc32)CC1` [Example 219, (1S,4s)-4-(8-(2,4-dichlorophenylamino)-2-((1R,3R)-3-hydroxycyclopentylamino)-9H-purin-9-yl)cyclohexanecarboxamide], the pIC50 was less than 6.00.

Consider `NC(=O)[C@H]1CC[C@@H](n2c(Nc3c(F)cccc3F)nc3cnc(N[C@H]4CC[C@H](O)C4)nc32)CC1` [Example 326, (1R,4s)-4-(8-(2,6-difluorophenylamino)-2-((1S,3S)-3-hydroxycyclopentylamino)-9H-purin-9-yl)cyclohexanecarboxamide], for which the pIC50 is less than 6.00.

In the case of `NC(=O)[C@H]1CC[C@@H](n2c(Nc3c(F)cc(Cl)cc3F)nc3cnc(NC4CC5(COC5)C4)nc32)CC1` [Example 176, (1s,4s)-4-(2-(2-oxaspiro[3.3]heptan-6-ylamino)-8-(4-chloro-2,6-difluorophenylamino)-9H-purin-9-yl)cyclohexanecarboxamide], the pIC50 was less than 6.00.

For the molecule `NC(=O)[C@H]1CC[C@@H](n2c(Nc3c(F)cc(F)cc3F)nc3cnc(N[C@@H]4CC[C@H](O)C4)nc32)CC1` [Example 332, (1S,4s)-4-(2-((1R,3S)-3-hydroxycyclopentylamino)-8-(2,4,6-trifluorophenylamino)-9H-purin-9-yl)cyclohexanecarboxamide], the pIC50 was less than 6.00.

Turning to `NC(=O)[C@H]1CC[C@@H](n2c(Nc3c(F)cc(Cl)cc3Cl)nc3cnc(N[C@@H]4COC[C@H]4O)nc32)CC1` [Example 314, (1S,4s)-4-(8-(2,4-dichloro-6-fluorophenylamino)-2-((3R,4S)-4-hydroxytetrahydrofuran-3-ylamino)-9H-purin-9-yl)cyclohexanecarboxamide], the pIC50 was less than 6.00.

For `NC(=O)[C@H]1CC[C@@H](n2c(Nc3c(Cl)cc(Cl)cc3Cl)nc3cnc(NC4CC(F)(F)C4)nc32)CC1` [Example 224, (1s,4s)-4-(2-(3,3-difluorocyclobutylamino)-8-(2,4,6-trichlorophenylamino)-9H-purin-9-yl)cyclohexanecarboxamide], the pIC50 was less than 6.00.

Still in this assay, the particulars now being: Homo sapiens; Lox-IMVI anti-proliferative assay, IC50 activity level; read-out: Activity.
For `NC(=O)[C@H]1CC[C@@H](n2c(Nc3c(F)cc(F)cc3F)nc3cnc(N[C@H]4CCC[C@H](O)C4)nc32)CC1` [Example 458, (1R,4s)-4-(2-((1S,3S)-3-hydroxycyclohexylamino)-8-(2,4,6-trifluorophenylamino)-9H-purin-9-yl)cyclohexanecarboxamide], the pIC50 is less than 6.00.

Turning to `C[C@@H]1COCC[C@@H]1Nc1ncc2nc(Nc3c(F)cc(Cl)cc3F)n([C@H]3CC[C@@H](C(N)=O)CC3)c2n1` [Example 509, (1R,4s)-4-(8-(4-chloro-2,6-difluorophenylamino)-2-((3S,4S)-3-methyltetrahydro-2H-pyran-4-ylamino)-9H-purin-9-yl)cyclohexanecarboxamide], the pIC50 is 6.00 to 6.30.

Turning to `N#Cc1cc(F)c(Nc2nc3cnc(NC4CC5(COC5)C4)nc3n2[C@H]2CC[C@@H](C(N)=O)CC2)c(Cl)c1` [Example 572, (1s,4s)-4-(2-(2-oxaspiro[3.3]heptan-6-ylamino)-8-(2-chloro-4-cyano-6-fluorophenylamino)-9H-purin-9-yl)cyclohexanecarboxamide], the pIC50 was 6.00 to 6.30.

Consider `NC(=O)[C@H]1CC[C@@H](n2c(Nc3c(F)cc(Cl)cc3F)nc3cnc(N[C@H]4CCC[C@H](O)C4)nc32)CC1` [Example 460, (1R,4s)-4-(8-(4-chloro-2,6-difluorophenylamino)-2-((1S,3S)-3-hydroxycyclohexylamino)-9H-purin-9-yl)cyclohexanecarboxamide], for which the pIC50 was less than 6.00.

For `N#Cc1cc(F)c(Nc2nc3cnc(N[C@@H]4CCC[C@H](O)C4)nc3n2[C@H]2CC[C@@H](C(N)=O)CC2)c(Cl)c1` [Example 456, (1S,4s)-4-(8-(2-chloro-4-cyano-6-fluorophenylamino)-2-((1R,3S)-3-hydroxycyclohexylamino)-9H-purin-9-yl)cyclohexanecarboxamide], the pIC50 is 6.00 to 6.30.

Take `NC(=O)[C@H]1CC[C@@H](n2c(Nc3c(Cl)cc(C(F)(F)F)cc3Cl)nc3cnc(N[C@@H]4CCC[C@H](O)C4)nc32)CC1` [Example 454, (1S,4s)-4-(8-(2,6-dichloro-4-(trifluoromethyl)phenylamino)-2-((1R,3S)-3-hydroxycyclohexylamino)-9H-purin-9-yl)cyclohexanecarboxamide]: the pIC50 was 6.00 to 6.30.

Still in this assay, the particulars now being: Homo sapiens; Lox-IMVI melanoma cell line, anti-proliferative assay; read-out: Activity (IC50 activity level).
Consider `C[C@]1(C(N)=O)CC[C@@H](n2c(Nc3c(F)cc(Cl)cc3F)nc3cnc(N[C@@H]4CCOC[C@H]4F)nc32)CC1` [Example 720, (1S,4s)-4-(8-(4-chloro-2,6-difluorophenylamino)-2-((3S,4R)-3-fluorotetrahydro-2H-pyran-4-ylamino)-9H-purin-9-yl)-1-methylcyclohexanecarboxamide], for which the pIC50 was greater than 6.60.

For the molecule `CC(=O)N1CCC[C@@H](Nc2ncc3nc(Nc4c(Cl)cc(C(F)(F)F)cc4Cl)n([C@H]4CC[C@@H](C(N)=O)CC4)c3n2)C1` [Example 798, (1S,4s)-4-(2-((R)-1-acetylpiperidin-3-ylamino)-8-(2,6-dichloro-4-(trifluoromethyl)phenylamino)-9H-purin-9-yl)cyclohexanecarboxamide], the pIC50 is less than 6.00.

`C[C@]1(C(N)=O)CC[C@@H](n2c(Nc3c(F)cc(F)cc3F)nc3cnc(N[C@@H]4CCC[C@@H](O)C4)nc32)CC1` [Example 617, (1S,4s)-4-(2-((1R,3R)-3-hydroxycyclohexylamino)-8-(2,4,6-trifluorophenylamino)-9H-purin-9-yl)-1-methylcyclohexanecarboxamide]: the pIC50 is less than 6.00.

As for `CNC(=O)N1CCC[C@@H](Nc2ncc3nc(Nc4c(Cl)cc(Cl)cc4Cl)n([C@H]4CC[C@@H](C(N)=O)CC4)c3n2)C1` [Example 705, (R)-3-(9-((1s,4S)-4-carbamoylcyclohexyl)-8-(2,4,6-trichlorophenylamino)-9H-purin-2-ylamino)-N-methylpiperidine-1-carboxamide], the pIC50 was less than 6.00.
